These compounds were tested against T1, Fatty acid synthase (Homo sapiens, UniProt P49327) (assay: Inhibition of FAS).
Target sequence in this assay (P49327 whole entry): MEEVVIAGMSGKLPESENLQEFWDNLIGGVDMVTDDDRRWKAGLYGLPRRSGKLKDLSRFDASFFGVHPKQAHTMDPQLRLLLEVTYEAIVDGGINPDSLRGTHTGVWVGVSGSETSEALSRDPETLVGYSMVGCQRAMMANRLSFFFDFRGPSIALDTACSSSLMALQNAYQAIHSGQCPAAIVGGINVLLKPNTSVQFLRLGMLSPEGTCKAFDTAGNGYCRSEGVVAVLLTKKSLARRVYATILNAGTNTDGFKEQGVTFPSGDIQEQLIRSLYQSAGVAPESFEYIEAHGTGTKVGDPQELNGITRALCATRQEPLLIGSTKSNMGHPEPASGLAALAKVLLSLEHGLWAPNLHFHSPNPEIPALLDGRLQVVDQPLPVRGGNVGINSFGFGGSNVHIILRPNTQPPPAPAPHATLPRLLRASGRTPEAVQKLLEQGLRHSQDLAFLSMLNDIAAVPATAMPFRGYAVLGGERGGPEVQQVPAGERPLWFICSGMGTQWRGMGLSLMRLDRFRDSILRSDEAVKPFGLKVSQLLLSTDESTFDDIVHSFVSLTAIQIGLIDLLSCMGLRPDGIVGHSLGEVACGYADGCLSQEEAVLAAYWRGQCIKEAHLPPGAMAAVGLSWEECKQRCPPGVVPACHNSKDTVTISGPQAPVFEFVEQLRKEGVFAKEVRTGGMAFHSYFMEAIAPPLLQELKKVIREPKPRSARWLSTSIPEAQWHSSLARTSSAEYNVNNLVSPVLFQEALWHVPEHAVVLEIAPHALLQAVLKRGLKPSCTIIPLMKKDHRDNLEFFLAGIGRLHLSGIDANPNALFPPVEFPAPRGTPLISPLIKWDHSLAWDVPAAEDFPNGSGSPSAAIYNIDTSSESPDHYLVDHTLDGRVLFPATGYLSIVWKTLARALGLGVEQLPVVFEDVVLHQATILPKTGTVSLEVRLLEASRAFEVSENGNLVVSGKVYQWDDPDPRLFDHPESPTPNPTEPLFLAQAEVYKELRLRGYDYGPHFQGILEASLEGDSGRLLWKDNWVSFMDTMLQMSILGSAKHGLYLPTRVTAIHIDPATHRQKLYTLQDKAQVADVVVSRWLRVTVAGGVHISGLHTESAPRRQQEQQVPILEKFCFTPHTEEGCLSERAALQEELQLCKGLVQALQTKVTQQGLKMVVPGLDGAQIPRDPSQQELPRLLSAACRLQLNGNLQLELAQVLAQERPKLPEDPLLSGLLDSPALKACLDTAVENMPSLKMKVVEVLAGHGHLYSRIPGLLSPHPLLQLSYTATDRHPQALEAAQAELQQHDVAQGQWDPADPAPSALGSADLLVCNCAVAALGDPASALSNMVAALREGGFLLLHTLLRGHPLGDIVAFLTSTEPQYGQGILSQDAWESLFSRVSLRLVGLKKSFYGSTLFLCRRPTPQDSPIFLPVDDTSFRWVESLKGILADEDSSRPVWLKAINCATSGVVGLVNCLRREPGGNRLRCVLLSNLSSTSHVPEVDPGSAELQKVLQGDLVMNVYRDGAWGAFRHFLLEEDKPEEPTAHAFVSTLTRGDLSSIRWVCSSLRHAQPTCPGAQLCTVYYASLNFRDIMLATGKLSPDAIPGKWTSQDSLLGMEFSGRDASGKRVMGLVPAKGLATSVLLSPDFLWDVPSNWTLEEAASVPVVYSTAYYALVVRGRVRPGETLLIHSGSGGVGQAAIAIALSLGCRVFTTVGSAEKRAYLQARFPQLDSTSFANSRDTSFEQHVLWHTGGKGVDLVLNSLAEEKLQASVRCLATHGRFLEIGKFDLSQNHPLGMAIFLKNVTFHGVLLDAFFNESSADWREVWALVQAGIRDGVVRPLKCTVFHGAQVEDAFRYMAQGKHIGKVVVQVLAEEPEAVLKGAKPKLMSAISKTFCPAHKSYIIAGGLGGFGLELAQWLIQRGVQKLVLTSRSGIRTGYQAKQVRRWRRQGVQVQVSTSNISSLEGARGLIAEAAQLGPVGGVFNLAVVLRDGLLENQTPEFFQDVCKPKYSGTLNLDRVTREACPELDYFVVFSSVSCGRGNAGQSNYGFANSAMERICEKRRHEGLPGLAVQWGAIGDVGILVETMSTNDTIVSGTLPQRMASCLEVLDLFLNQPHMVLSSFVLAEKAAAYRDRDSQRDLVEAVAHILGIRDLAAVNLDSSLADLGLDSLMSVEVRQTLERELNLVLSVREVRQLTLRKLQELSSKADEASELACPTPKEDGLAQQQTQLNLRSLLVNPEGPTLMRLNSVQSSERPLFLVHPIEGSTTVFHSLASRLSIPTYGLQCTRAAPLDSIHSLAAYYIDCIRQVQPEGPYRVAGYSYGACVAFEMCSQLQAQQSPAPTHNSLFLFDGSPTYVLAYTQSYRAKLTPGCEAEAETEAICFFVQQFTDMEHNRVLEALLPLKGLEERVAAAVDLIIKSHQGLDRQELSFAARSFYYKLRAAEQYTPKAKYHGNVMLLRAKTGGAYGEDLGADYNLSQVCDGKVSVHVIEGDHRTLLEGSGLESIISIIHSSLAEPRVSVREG

First: C/C=C/C/C=C/CCC(=O)[C@H]1O[C@H]1C(N)=O [CERULENIN]
Second: CCCC(=O)C1=C(OC)C(C)C(O)=C(CC2=C(O)C(C)(C)C(O)=C(C(=O)CCC)C2=O)C1=O (stereo unspecified)
The IC50 of the first is 2.5-fold lower: 13 µM for the first, 32.6 µM for the second. The first is the more potent here.

First: CCCC(=O)c1c(O)c(CC2=C(O)C(C)(C)C(O)=C(C(C)=O)C2=O)c(O)c(CC2=C(O)C(C)(C)C(O)=C(C(=O)CC)C2=O)c1O
Second: CCCC(=O)C1=C(O)C(C)(C)C(O)=C(CC2=C(O)C(C)(C)C(O)=C(C(=O)CC)C2=O)C1=O
The IC50 of the first is 1.8-fold lower: 31 µM for the first, 56.1 µM for the second. The first is the more potent here.

`CCCC(=O)c1c(O)c(C)c(O)c(Cc2c(O)c(C)c(O)c(C(=O)CCC)c2O)c1O` and `CCCC(=O)C1=C(O)C(C)C(O)=C(CC2=C(O)C(C)(C)C(O)=C(C(=O)CC)C2=O)C1=O` (stereo unspecified) are within 1.5-fold of each other in IC50: 25.4 µM for the first, 23.1 µM for the second.

`CCC(=O)C1=C(O)C(C)(C)C(O)=C(CC2=C(O)C(C)(C)C(O)=C(C(=O)CC)C2=O)C1=O` and `CCC(=O)C1=C(O)C(C)(C)C(O)=C(CC2=C(O)C(C)(C)C(O)=C(C(C)=O)C2=O)C1=O` are within 1.5-fold of each other in IC50: 60.2 µM for the first, 71.7 µM for the second.

Going from `Oc1cc(O)c2c(c1)O[C@H](c1ccc(O)c(O)c1)[C@H](O)C2` [(-)-EPICATECHIN] to `O=c1cc(-c2ccc(O)c(O)c2)oc2cc(O)cc(O)c12` [LUTEOLIN], the IC50 falls from over 100 µM to 62.5 µM. The second is the more potent here.

First: O=c1c(O)c(-c2ccccc2)oc2ccccc12 [FLAVONOL]
Second: CCCC(=O)c1c(O)cc(OC)c(C)c1O
The IC50 of the first is higher: over 100 µM for the first, 49.1 µM for the second.

`CCCC(=O)C1=C(O)C(C)C(O)=C(CC2=C(O)C(C)(C)C(O)=C(C(C)=O)C2=O)C1=O` (stereo unspecified) and `CCCC(=O)C1=C(O)CC(O)=C(CC2=C(O)C(C)(C)C(O)=C(C(C)=O)C2=O)C1=O` are within 1.5-fold of each other in IC50: 28.7 µM for the first, 29.7 µM for the second.

Each compound was assayed against T1, Fatty acid synthase (assay: Inhibition of FAS at 100 uM).
Target sequence in this assay (P49327 whole entry, looked up): as the sequence (P49327 whole entry) above

First: Oc1cc(O)c2c(c1)O[C@H](c1ccc(O)c(O)c1)[C@H](O)C2 [(-)-EPICATECHIN]
Second: O=c1c(O)c(-c2ccccc2)oc2ccccc12 [FLAVONOL]
The inhibition of the first is higher: 10.2% for the first, 6.5% for the second.

From ChEMBL document CHEMBL1149347, “Fatty acid synthase inhibitory activity of acylphloroglucinols isolated from Dryopteris crassirhizoma” (Bioorg Med Chem Lett, 2006)
